Data as given in US8163740B2, “6-substituted benzoxazines” (Hoffmann-La Roche Inc., priority 2008, dated 2012).

Biological target: recombinant human 5-HT5A receptor (Homo sapiens, UniProt P47898)
Experiment: [3H]LSD radioligand binding assay
Conditions: not given
Procedure, shortened: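 Membranes from HEK-EBNA cells transiently expressing the receptor, with ~1 nM [3H]LSD in 50 mM Tris, 1 mM EGTA, 10 mM MgCl2, 10 μM pargyline, pH 7.4, SPA bead format. Incubated 120 min RT; nonspecific binding defined with 2 μM methiothepin. 10 concentrations in duplicate; IC50 converted to Ki via Cheng-Prusoff.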

Chain of recombinant human 5-HT5A receptor (P47898 whole entry): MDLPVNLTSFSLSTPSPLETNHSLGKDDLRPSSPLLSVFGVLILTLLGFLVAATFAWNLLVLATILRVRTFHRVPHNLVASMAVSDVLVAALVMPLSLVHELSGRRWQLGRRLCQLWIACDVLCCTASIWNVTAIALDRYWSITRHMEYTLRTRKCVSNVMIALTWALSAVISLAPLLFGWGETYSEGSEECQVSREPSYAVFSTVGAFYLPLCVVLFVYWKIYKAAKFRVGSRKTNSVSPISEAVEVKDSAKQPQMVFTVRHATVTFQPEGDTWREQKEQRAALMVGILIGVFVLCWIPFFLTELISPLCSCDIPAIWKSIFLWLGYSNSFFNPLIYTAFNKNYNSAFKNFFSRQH

| Compound | Ki [nM] |
| --- | --- |
| CN1C2COCC1CN(CC(=O)Nc1ccc3c(c1)COC(N[C@@H]1CCc4ccccc41)=N3)C2 [Example 159, N-[2-((R)-Indan-1-ylamino)-4H-benzo[d][1,3]oxazin-6-yl]-2-(9-methyl-3-oxa-7,9-diaza-bicyclo[3.3.1]non-7-yl)-acetamide] | 18.9 |

Same assay, conditions: [3H]LSD (approximately 1 nM); membranes from HEK-EBNA cells transiently expressing 5-HT5A; Ki by Cheng-Prussoff equation; read-out: Ki

| Compound | Ki [nM] |
| --- | --- |
| Cc1nnc(Nc2ccc3c(c2)COC(NC2CCc4cc(F)ccc42)=N3)o1 (racemic) [Example 106, rac-N^2-(5-Fluoro-indan-1-yl)-N^6-(5-methyl-[1,3,4]oxadiazol-2-yl)-4H-benzo[d][1,3]oxazine-2,6-diamine] | 2.94 |
| COc1cccc2c1C(NC1=Nc3ccc(Nc4nnc(C)o4)cc3CO1)CC2 (stereo not shown) [Example 101, N^2-(7-Methoxy-indan-1-yl)-N^6-(5-methyl-[1,3,4]oxadiazol-2-yl)-4H-benzo[d][1,3]oxazine-2,6-diamine] | 2.41 |
| O=C(Nc1ccc2c(c1)COC(NC1CCOc3ccccc31)=N2)C1CC1 (racemic) [Example 90, rac-Cyclopropanecarboxylic acid [2-(chroman-4-ylamino)-4H-benzo[d][1,3]oxazin-6-yl]-amide] | 8.28 |
| COCC1CN(CC(=O)Nc2ccc3c(c2)COC(NC2CCc4cccc(OC)c42)=N3)CCN1C (stereo not shown) [Example 146, N-[2-(7-Methoxy-indan-1-ylamino)-4H-benzo[d][1,3]oxazin-6-yl]-2-(3-methoxymethyl-4-methyl-piperazin-1-yl)-acetamide] | 3.7 |
| c1csc(CNc2ccc3c(c2)COC(NC2CCCCCC2)=N3)n1 [Example 98, N^2-Cycloheptyl-N^6-thiazol-2-ylmethyl-4H-benzo[d][1,3]oxazine-2,6-diamine] | 19.3 |
| COc1cccc2c1C(NC1=Nc3ccc([N+](=O)[O-])cc3CO1)CO2 (racemic) [Example 5, rac-(4-Methoxy-2,3-dihydro-benzofuran-3-yl)-(6-nitro-4H-benzo[d][1,3]oxazin-2-yl)-amine] | 368 |
| COC[C@@H]1CN(CC(=O)Nc2ccc3c(c2)COC(N[C@@H]2CCc4ccccc42)=N3)C[C@@H](COC)N1C (mixture of isomers) [Example 158, 2-((3SR,5SR)-3,5-Bis-(methoxymethyl)-4-methyl-piperazin-1-yl)-N-[2-((R)-indan-1-ylamino)-4H-benzo[d][1,3]oxazin-6-yl]-acetamide] | 16.1 |
| Cc1ccc(CNC2=Nc3ccc(NC(=O)CN4CCOCC4)cc3CO2)o1 [Example 85, N-{2-[(5-Methyl-furan-2-ylmethyl)-amino]-4H-benzo[d][1,3]oxazin-6-yl}-2-morpholin-4-yl-acetamide] | 251 |
| Fc1ccc2c(c1)CCC2NC1=Nc2ccc(Br)cc2CO1 (racemic) [Example 53, rac-(6-Bromo-4H-benzo[d][1,3]oxazin-2-yl)-(5-fluoro-indan-1-yl)-amine] | 43.6 |
| Fc1ccc2c(c1)CCC2NC1=Nc2ccc(Nc3nccc(C(F)(F)F)n3)cc2CO1 (racemic) [Example 58, rac-N^2-(5-Fluoro-indan-1-yl)-N^6-(4-trifluoromethyl-pyrimidin-2-yl)-4H-benzo[d][1,3]oxazine-2,6-diamine] | 6.8 |
| c1cc(NC2=Nc3ccc(NCc4ncc[nH]4)cc3CO2)cc(C2CC2)c1 [Example 125, N^2-(3-Cyclopropyl-phenyl)-N^6-(1H-imdazol-2-ylmethyl)-4H-benzo[d][1,3]oxazine-2,6-diamine] | 37.2 |
| COc1cccc2c1C(NC1=Nc3ccc(NS(=O)(=O)N(C)C)cc3CO1)CC2 (racemic) [Example 61, rac-N,N-(Dimethyl)-N′-{2-(7-Methoxy-indan-1-ylamino)-4H-benzo[d][1,3]oxazin-6-yl}-sulfamide] | 2.6 |
| CC(C)(O)CNCC(=O)Nc1ccc2c(c1)COC(NC1COc3cc(F)ccc31)=N2 (racemic) [Example 43, rac-N-[2-(6-Fluoro-2,3-dihydro-benzofuran-3-ylamino)-4H-benzo[d][1,3]oxazin-6-yl]-2-(2-hydroxy-2-methyl-propylamino)-acetamide] | 50.3 |
| CN(C)S(=O)(=O)Nc1ccc2c(c1)COC(NC1CCCCCC1)=N2 [Example 99, N,N-(Dimethyl)-N′-{2-cycloheptylamino-4H-benzo[d][1,3]oxazin-6-yl-}-sulfamide] | 47.6 |
| COc1cccc2c1C(NC1=Nc3ccc(NC(=O)CN4CCN(C)CC4)cc3CO1)CC2 (racemic) [Example 86, rac-N-[2-(7-Methoxy-indan-1-ylamino)-4H-benzo[d][1,3]oxazin-6-yl]-2-(4-methyl-piperazin-1-yl)-acetamide] | 1.43 |
| COCC(=O)Nc1ccc2c(c1)COC(NC1CCc3cc(F)ccc31)=N2 (racemic) [Example 21, rac-N-[2-(5-Fluoro-indan-1-ylamino)-4H-benzo[d][1,3]oxazin-6-yl]-2-methoxy-acetamide] | 5.5 |
| CN1CCN(CC(=O)Nc2ccc3c(c2)COC(NC2CCCCCCC2)=N3)CC1 [Example 156, N-(2-Cyclooctylamino-4H-benzo[d][1,3]oxazin-6-yl)-2-(4-methyl-piperazin-1-yl)-acetamide] | 2.16 |

| Compound | Ki [nM] |
| --- | --- |
| COc1cccc2c1C(NC1=Nc3ccc(NS(=O)(=O)C4CC4)cc3CO1)CO2 (racemic) [Example 113, rac-Cyclopropanesulfonic acid [2-(4-methoxy-2,3-dihydro-benzofuran-3-ylamino)-4H-benzo[d][1,3]oxazin-6-yl]-amide] | 12.6 |
| Cc1cc(C)nc(Nc2ccc3c(c2)COC(N[C@@H]2CCc4ccccc42)=N3)n1 [Example 47, N^6-(4,6-Dimethyl-pyrimidin-2-yl)-N^2-(R)-indan-1-yl-4H-benzo[d][1,3]oxazine-2,6-diamine] | 3.56 |
| CN1CCN(CC(=O)Nc2ccc3c(c2)COC(NC2CCOc4ccccc42)=N3)CC1 (racemic) [Example 120, rac-N-[2-(Chroman-4-ylamino)-4H-benzo[d][1,3]oxazin-6-yl]-2-(4-methyl-piperazin-1-yl)-acetamide] | 14.3 |
| COCC(=O)Nc1ccc2c(c1)COC(NC1CCc3cccc(OC)c31)=N2 (racemic) [Example 24, rac-2-Methoxy-N-[2-(7-methoxy-indan-1-ylamino)-4H-benzo[d][1,3]oxazin-6-yl]-acetamide] | 4.83 |
| CN(C)S(=O)(=O)Nc1ccc2c(c1)COC(NC1CCOc3ccccc31)=N2 (racemic) [Example 91, rac-N,N-(Dimethyl)-N′-{2-(chroman-4-ylamino)-4H-benzo[d][1,3]oxazin-6-yl}-sulfamide] | 52.5 |
| COc1cccc2c1C(NC1=Nc3ccc(NC(=O)CN4CCN(C)C(CO)C4)cc3CO1)CC2 (stereo not shown) [Example 116, 2-(3-Hydroxymethyl-4-methyl-piperazin-1-yl)-N-[2-(7-methoxy-indan-1-ylamino)-4H-benzo[d][1,3]oxazin-6-yl]-acetamide] | 2.89 |
| COc1cccc2c1C(NC1=Nc3ccc(NC(=O)C4CC4)cc3CO1)CCC2 (racemic) [Example 23, rac-Cyclopropanecarboxylic acid [2-(8-methoxy-1,2,3,4-tetrahydro-naphthalen-1-ylamino)-4H-benzo[d][1,3]oxazin-6-yl]-amide] | 1.85 |
| COc1cccc2c1C(NC1=Nc3ccc(NC(=O)CN4CCOCC4)cc3CO1)CO2 (racemic) [Example 13, rac-N-[2-(4-Methoxy-2,3-dihydro-benzofuran-3-ylamino)-4H-benzo[d][1,3]oxazin-6-yl]-2-morpholin-4-yl-acetamide] | 40.6 |
| CN1CCN(CC(=O)Nc2ccc3c(c2)COC(N[C@@H]2CCc4ccccc42)=N3)CC1 [Example 3, N-[2-((R)-Indan-1-ylamino)-4H-benzo[d][1,3]oxazin-6-yl]-2-(4-methyl-piperazin-1-yl)-acetamide] | 1.84 |
| COCC1CN(CC(=O)Nc2ccc3c(c2)COC(N[C@@H]2CCc4ccccc42)=N3)CCN1C (stereo partly drawn) [Example 147, N-[2-((R)-Indan-1-ylamino)-4H-benzo[d][1,3]oxazin-6-yl]-2-(3-methoxymethyl-4-methyl-piperazin-1-yl)-acetamide] | 3.55 |
| c1ccc(CNc2ccc3c(c2)COC(NC2CCCCCC2)=N3)cc1 [Example 94, N^6-Benzyl-N^2-cycloheptyl-4H-benzo[d][1,3]oxazine-2,6-diamine] | 63.5 |
| CC(C)(O)CNCC(=O)Nc1ccc2c(c1)COC(N[C@@H]1CCc3ccccc31)=N2 [Example 68, 2-(2-Hydroxy-2-methyl-propylamino)-N-[2-((R)-indan-1-ylamino)-4H-benzo[d][1,3]oxazin-6-yl]-acetamide] | 9.23 |
| O=C(CN1CCOCC1)Nc1ccc2c(c1)COC(N[C@@H]1CCc3ccccc31)=N2 [Example 37, N-[2-((R)-Indan-1-ylamino)-4H-benzo[d][1,3]oxazin-6-yl]-2-morpholin-4-yl-acetamide] | 8.74 |
| Cc1ccc(CNC2=Nc3ccc(NC(=O)CN4CCN(C)CC4)cc3CO2)o1 [Example 84, N-{2-[(5-Methyl-furan-2-ylmethyl)-amino]-4H-benzo[d][1,3]oxazin-6-yl}-2-(4-methyl-piperazin-1-yl)-acetamide] | 26.8 |
| COc1cccc2c1C(NC1=Nc3ccc(Nc4nccc(C(F)(F)F)n4)cc3CO1)CO2 (racemic) [Example 60, rac-N^2-(4-Methoxy-2,3-dihydro-benzofuran-3-yl)-N^6-(4-trifluoromethyl-pyrimidin-2-yl)-4H-benzo[d][1,3]oxazine-2,6-diamine] | 12.5 |
| COc1cccc2c1C(NC1=Nc3ccc(NS(C)(=O)=O)cc3CO1)CC2 (racemic) [Example 102, rac-N-[2-(7-Methoxy-indan-1-ylamino)-4H-benzo[d][1,3]oxazin-6-yl]-methanesulfonamide] | 8.36 |
| COc1cccc2c1C(NC1=Nc3ccc(N)cc3CO1)CC2 (racemic) [Example 10, rac-N^2-(7-Methoxy-indan-1-yl)-4H-benzo[d][1,3]oxazine-2,6-diamine] | 1.2 |

Tested on: not given
Experiment: not given
Conditions: not given

| Compound | melting point [°C] |
| --- | --- |
| Cc1nnc(Nc2ccc3c(c2)COC(NC2CCc4cc(F)ccc42)=N3)o1 (racemic) [Example 106, rac-N^2-(5-Fluoro-indan-1-yl)-N^6-(5-methyl-[1,3,4]oxadiazol-2-yl)-4H-benzo[d][1,3]oxazine-2,6-diamine] | 121 |
| COc1cccc2c1C(NC1=Nc3ccc(Nc4nnc(C)o4)cc3CO1)CC2 (stereo not shown) [Example 101, N^2-(7-Methoxy-indan-1-yl)-N^6-(5-methyl-[1,3,4]oxadiazol-2-yl)-4H-benzo[d][1,3]oxazine-2,6-diamine] | 162 |
